Assay results: US8501977B2, “Platinum complex and pharmaceutical composition containing the same” (Unitech Co., Ltd., priority 2008, dated 2013)
“Also recorded” adds a separate entry of the source.

What was measured:
[1] = tested on: U937 (human lymphoma cell); experiment: MTS cell proliferation test, U937 (Embodiment 8); format: cell-based
Description: (§1) Respectively, the S medicine test solution was prepared by dissolving the ((S,S,S) cis,cis-spiro[4,4]nonane-1,6-diamine)oxalatoplatinum(II) complex (compound 2; hereinafter, it is described as S medicine) into the dimethylsulfoxide (DMSO) with the concentration of 10 mg/ml and the R medicine test solution was prepared by dissolving the ((R,R,R)cis,cis-spiro[4,4]nonane-1,6-diamine) oxalatoplatinum(II) complex (compound 3; hereinafter, it is described as R medicine) into the dimethylsulfoxide (DMSO) with the concentration of 10 mg/ml.
(§2) The test was performed by using A549 (human lung cancer cell), LU65A (human lung cancer cell), RERF-LC-MA (human lung cancer cell), LU99 (human lung cancer cell), H460 (human lung cancer cell), HCT116 (human colon cancer cell), HT-29 (human colon cancer cell), MKN-45 (human gastric cancer cell), MKN-1 (human gastric cancer cell), U937 (human lymphoma cell), KP-1N (human pancreas cancer cell) and B2452 (human mesotheliama cell) as the cancer cell.
(§3) These cells were suspended in the each culture medium that the serum of 10% was added, and were dispensed in 96-well plate. And then, these were cultured in 5% CO2 at 37 degrees centigrade during a night. Next day, the S medicine test solution and the R medicine test solution were prepared in the culture medium to the various concentrations (5, 10, 20 μg/ml), and were dispensed into the plates that the cells were set preliminarily. And further, these were cultured in 5% CO2 at 37 degrees centigrade for three days.
(§4) The cell proliferation after the medicine addition was measured on the 3rd day from the 1st day after the medicine addition by the MTS method (kit for cell proliferation test manufactured by Promega Company).
(§5) The inhibition rate (%) of the cell proliferation was obtained from the measured MTS value by the following formula. Inhibition rate(%)=(1-MTS value of medicine addition group/MTS value of medicine non-addition group)×100
(§6) Because the value which was obtained by the above-mentioned formula represents the inhibition rate of the cell proliferation, the higher the numerical value is, the higher the medicine effect is. It is desired that the one whose value is 50% or more has the medicine effect.

[2] = tested on: MKN-1 (human gastric cancer cell); experiment: MTS cell proliferation test, MKN-1 (Embodiment 8); format: cell-based
Description: as §1, §2, §3, §4, §5, §6

[3] = tested on: RERF-LC-MA (human lung cancer cell); experiment: MTS cell proliferation test, RERF-LC-MA (Embodiment 8); format: cell-based
Description: as §1, §2, §3, §4, §5, §6

[4] = tested on: H2452 cell (human mesothelicana cell); experiment: MTS cell proliferation test, H2452 (Embodiment 8); format: cell-based
Description: as §1, §2, §3, §4, §5, §6

tumor cells = experiment: MTS cell proliferation test, all cancer cells of Embodiment 8; format: cell-based, human; settings: summary of Table 2 in words
Description: as §1
The test was performed by using A549 (human lung cancer cell), LU65A (human lung cancer cell), RERF-LC-MA (human lung cancer cell), LU99 (human lung cancer cell), H460 (human lung cancer cell), HCT116 (human colon cancer cell), HT-29 (human colon cancer cell), MKN-45 (human gastric cancer cell), MKN-1 (human gastric cancer cell), U937 (human lymphoma cell), KP-1N (human pancreas cancer cell) and B2452 (human mesotheliama cell) as the cancer cell. […]
as §4
The inhibition rate (%) of the cell proliferation was obtained from the measured MTS value by the following formula. […]

[5] = tested on: HT-29 (human colon cancer cell); experiment: MTS cell proliferation test, HT-29 (Embodiment 8); format: cell-based
Description: as §1, §2, §3, §4, §5, §6

[6] = tested on: H460 (human lung cancer cell); experiment: MTS cell proliferation test, H460 (Embodiment 8); format: cell-based
Description: as §1, §2, §3, §4, §5, §6

[7] = tested on: LU99 (human lung cancer cell); experiment: MTS cell proliferation test, LU99 (Embodiment 8); format: cell-based
Description: as §1, §2, §3, §4, §5, §6

[8] = tested on: MKN-45 (human gastric cancer cell); experiment: MTS cell proliferation test, MKN-45 (Embodiment 8); format: cell-based
Description: as §1, §2, §3, §4, §5, §6

[9] = tested on: A549 (human lung cancer cell); experiment: MTS cell proliferation test, A549 (Embodiment 8); format: cell-based
Description: as §1, §2, §3, §4, §5, §6

[10] = tested on: HCT116 (human colon cancer cell); experiment: MTS cell proliferation test, HCT116 (Embodiment 8); format: cell-based
Description: as §1, §2, §3, §4, §5, §6

[11] = tested on: LU65A (human lung cancer cell); experiment: MTS cell proliferation test, LU65A (Embodiment 8); format: cell-based
Description: as §1, §2, §3, §4, §5, §6

[12] = tested on: KP-1N (human pancreas cancer cell); experiment: MTS cell proliferation test, KP-1N (Embodiment 8); format: cell-based
Description: as §1, §2, §3, §4, §5, §6

In the case of `NC1CCCC12CCCC2N.O=C1[O][Pt][O]C1=O` [R medicine, ((R,R,R)cis,cis-spiro[4,4]nonane-1,6-diamine) oxalatoplatinum(II) complex], the “Inhibition rate of cell proliferation after 3 days from medicine addition (%)” value (“Inhibition rate of cell proliferation … (%)” for short) ([1]; U937, 5 μg/ml) is reported as “⊚ (⊚: 76~100%)”, the “Inhibition rate of cell proliferation … (%)” value ([1]; U937, 10 μg/ml) is reported as “⊚ (⊚: 76~100%)” and the “Inhibition rate of cell proliferation … (%)” value ([1]; U937, 20 μg/ml) is reported as “⊚ (⊚: 76~100%)”. For the same molecule, the “Inhibition rate of cell proliferation … (%)” value ([2]; MKN-1, 5 μg/ml) was “⊚ (⊚: 76~100%)”, the “Inhibition rate of cell proliferation … (%)” value ([2]; MKN-1, 10 μg/ml) was “⊚ (⊚: 76~100%)” and the “Inhibition rate of cell proliferation … (%)” value ([2]; MKN-1, 20 μg/ml) was “⊚ (⊚: 76~100%)”. For the same molecule, the “Inhibition rate of cell proliferation … (%)” value ([3]; 5 μg/ml) was “Δ (Δ: 26~50%)”, the “Inhibition rate of cell proliferation … (%)” value ([3]; 10 μg/ml) was “◯ (◯: 51~75%)” and the “Inhibition rate of cell proliferation … (%)” value ([3]; 20 μg/ml) was “◯ (◯: 51~75%)”. For the same molecule, the “Inhibition rate of cell proliferation … (%)” value ([4]; H2452, 5 μg/ml) was “Δ (Δ: 26~50%)”, the “Inhibition rate of cell proliferation … (%)” value ([4]; H2452, 10 μg/ml) was “◯ (◯: 51~75%)” and the “Inhibition rate of cell proliferation … (%)” value ([4]; H2452, 20 μg/ml) was “◯ (◯: 51~75%)”. For the same molecule, the “medicine effect for the many tumor cells” value (tumor cells) was “high medicine effect compared with the oxaliplatin; also recorded: higher in the effect”, the “Inhibition rate of cell proliferation … (%)” value ([5]; HT-29, 5 μg/ml) was “◯ (◯: 51~75%)” and the “Inhibition rate of cell proliferation … (%)” value ([5]; HT-29, 10 μg/ml) was “◯ (◯: 51~75%)”. The “Inhibition rate of cell proliferation … (%)” value ([5]; HT-29, 20 μg/ml) was “⊚ (⊚: 76~100%)”, the “Inhibition rate of cell proliferation … (%)” value ([6]; H460, 5 μg/ml) was “◯ (◯: 51~75%)” and the “Inhibition rate of cell proliferation … (%)” value ([6]; H460, 10 μg/ml) was “⊚ (⊚: 76~100%)”. The “Inhibition rate of cell proliferation … (%)” value ([6]; H460, 20 μg/ml) was “⊚ (⊚: 76~100%)”, the “Inhibition rate of cell proliferation … (%)” value ([7]; LU99, 5 μg/ml) was “⊚ (⊚: 76~100%)” and the “Inhibition rate of cell proliferation … (%)” value ([7]; LU99, 10 μg/ml) was “⊚ (⊚: 76~100%)”. For the same molecule, the “Inhibition rate of cell proliferation … (%)” value ([7]; LU99, 20 μg/ml) was “⊚ (⊚: 76~100%)”, the “Inhibition rate of cell proliferation … (%)” value ([8]; MKN-45, 5 μg/ml) was “⊚ (⊚: 76~100%)” and the “Inhibition rate of cell proliferation … (%)” value ([8]; MKN-45, 10 μg/ml) was “⊚ (⊚: 76~100%)”. The “Inhibition rate of cell proliferation … (%)” value ([8]; MKN-45, 20 μg/ml) was “⊚ (⊚: 76~100%)”, the “Inhibition rate of cell proliferation … (%)” value ([9]; A549, 5 μg/ml) was “Δ (Δ: 26~50%)” and the “Inhibition rate of cell proliferation … (%)” value ([9]; A549, 10 μg/ml) was “◯ (◯: 51~75%)”. For the same molecule, the “Inhibition rate of cell proliferation … (%)” value ([9]; A549, 20 μg/ml) was “◯ (◯: 51~75%)”, the “Inhibition rate of cell proliferation … (%)” value ([10]; HCT116, 5 μg/ml) was “◯ (◯: 51~75%)” and the “Inhibition rate of cell proliferation … (%)” value ([10]; HCT116, 10 μg/ml) was “⊚ (⊚: 76~100%)”. For the same molecule, the “Inhibition rate of cell proliferation … (%)” value ([10]; HCT116, 20 μg/ml) was “⊚ (⊚: 76~100%)”, the “Inhibition rate of cell proliferation … (%)” value ([11]; 5 μg/ml) was “⊚ (⊚: 76~100%)” and the “Inhibition rate of cell proliferation … (%)” value ([11]; 10 μg/ml) was “⊚ (⊚: 76~100%)”. For the same molecule, the “Inhibition rate of cell proliferation … (%)” value ([11]; 20 μg/ml) was “⊚ (⊚: 76~100%)”, the “Inhibition rate of cell proliferation … (%)” value ([12]; 5 μg/ml) was “◯ (◯: 51~75%)” and the “Inhibition rate of cell proliferation … (%)” value ([12]; 10 μg/ml) was “⊚ (⊚: 76~100%)”. The “Inhibition rate of cell proliferation … (%)” value ([12]; 20 μg/ml) was “⊚ (⊚: 76~100%)”.
